Species on record: Rattus norvegicus
Experiment: DrugMatrix - Regimen: Daily Repeat
Assay type: toxicity, organism-based, Sprague-Dawley
Parameters: regimen Daily Repeat, gender Male, age 6-8 weeks
Conditions: in vivo, po, 1500 mg/kg, route oral GAVAGE, dose level High, vehicle .5 % CMC; for ABSOLUTE BASOPHIL / ABSOLUTE EOSINOPHIL / ABSOLUTE LYMPHOCYTE / ABSOLUTE MONOCYTE / ABSOLUTE SEGMENTED NEUTROPHIL / BASOPHIL / EOSINOPHIL / ERYTHROCYTE COUNT / HEMATOCRIT / HEMOGLOBIN / LEUKOCYTE COUNT / LYMPHOCYTE / MEAN CORPUSCULAR HEMOGLOBIN / MEAN CORPUSCULAR HEMOGLOBIN CONCENTRATION / MEAN CORPUSCULAR VOLUME / MONOCYTE / NEUTROPHIL / NUCLEATED RED BLOOD CELLS / PLATELET COUNT: tissue Blood; for ALANINE AMINOTRANSFERASE / ALBUMIN / ALKALINE PHOSPHATASE / ASPARTATE AMINOTRANSFERASE / BLOOD UREA NITROGEN / CARBON DIOXIDE / CHLORIDE / CHOLESTEROL / CREATINE PHOSPHOKINASE / CREATININE / GLUCOSE / LACTATE DEHYDROGENASE / LIPASE / PHOSPHORUS / POTASSIUM / SODIUM / TOTAL BILIRUBIN / TOTAL PROTEIN / URIC ACID: tissue Plasma

COC(=O)Nc1nc2ccc([S+]([O-])c3ccccc3)cc2[nH]1 (stereo unspecified) [OXFENDAZOLE]
ABSOLUTE BASOPHIL (72 h, time 3 day): 0 CELLS/uL | ABSOLUTE EOSINOPHIL (72 h, time 3 day): 0 CELLS/uL | ABSOLUTE LYMPHOCYTE (72 h, time 3 day): 9253.67 CELLS/uL | ABSOLUTE MONOCYTE (72 h, time 3 day): 174.67 CELLS/uL | ABSOLUTE SEGMENTED NEUTROPHIL (72 h, time 3 day): 671.67 CELLS/uL | BASOPHIL (72 h, time 3 day): 0% | EOSINOPHIL (72 h, time 3 day): 0% | ERYTHROCYTE COUNT (72 h, time 3 day): 5.79 x10E6/uL | HEMATOCRIT (72 h, time 3 day): 34.2% | HEMOGLOBIN (72 h, time 3 day): 13.37 G/DL | LEUKOCYTE COUNT (72 h, time 3 day): 10.1 x10E3/uL | LYMPHOCYTE (72 h, time 3 day): 91.67% | MEAN CORPUSCULAR HEMOGLOBIN (72 h, time 3 day): 23.07 pg | MEAN CORPUSCULAR HEMOGLOBIN CONCENTRATION (72 h, time 3 day): 39.1 G/DL | MEAN CORPUSCULAR VOLUME (72 h, time 3 day): 59.03 fL | MONOCYTE (72 h, time 3 day): 1.67% | NEUTROPHIL (72 h, time 3 day): 6.67% | NUCLEATED RED BLOOD CELLS (72 h, time 3 day): 0 /100WBC | PLATELET COUNT (72 h, time 3 day): 1138.67 x10E3/uL | ALANINE AMINOTRANSFERASE (72 h, time 3 day): 42.33 u/L | ALBUMIN (72 h, time 3 day): 4 G/DL | ALKALINE PHOSPHATASE (72 h, time 3 day): 328.67 u/L | ASPARTATE AMINOTRANSFERASE (72 h, time 3 day): 70.33 u/L | BLOOD UREA NITROGEN (72 h, time 3 day): 15.33 mg/dL | CARBON DIOXIDE (72 h, time 3 day): 27.33 mmol/L | CHLORIDE (72 h, time 3 day): 100.33 MEQ/L | CHOLESTEROL (72 h, time 3 day): 67.67 mg/dL | CREATINE PHOSPHOKINASE (72 h, time 3 day): 217.33 u/L | CREATININE (72 h, time 3 day): 0.17 mg/dL | GLUCOSE (72 h, time 3 day): 160.33 mg/dL | LACTATE DEHYDROGENASE (72 h, time 3 day): 90 u/L | LIPASE (72 h, time 3 day): 9.67 u/L | PHOSPHORUS (72 h, time 3 day): 11.6 mg/dL | POTASSIUM (72 h, time 3 day): 6.25 MEQ/L | SODIUM (72 h, time 3 day): 142.17 MEQ/L | TOTAL BILIRUBIN (72 h, time 3 day): 0.1 mg/dL | TOTAL PROTEIN (72 h, time 3 day): 5.43 G/DL | URIC ACID (72 h, time 3 day): 1.83 mg/dL | ABSOLUTE BASOPHIL (120 h, time 5 day): 0 CELLS/uL | ABSOLUTE EOSINOPHIL (120 h, time 5 day): 0 CELLS/uL | ABSOLUTE LYMPHOCYTE (120 h, time 5 day): 9784.67 CELLS/uL | ABSOLUTE MONOCYTE (120 h, time 5 day): 35.33 CELLS/uL | ABSOLUTE SEGMENTED NEUTROPHIL (120 h, time 5 day): 380 CELLS/uL | BASOPHIL (120 h, time 5 day): 0% | EOSINOPHIL (120 h, time 5 day): 0% | ERYTHROCYTE COUNT (120 h, time 5 day): 5.39 x10E6/uL | HEMATOCRIT (120 h, time 5 day): 32.9% | HEMOGLOBIN (120 h, time 5 day): 13.2 G/DL | LEUKOCYTE COUNT (120 h, time 5 day): 10.2 x10E3/uL | LYMPHOCYTE (120 h, time 5 day): 95.67% | MEAN CORPUSCULAR HEMOGLOBIN (120 h, time 5 day): 24.53 pg | MEAN CORPUSCULAR HEMOGLOBIN CONCENTRATION (120 h, time 5 day): 40.13 G/DL | MEAN CORPUSCULAR VOLUME (120 h, time 5 day): 61.07 fL | MONOCYTE (120 h, time 5 day): 0.33% | NEUTROPHIL (120 h, time 5 day): 4% | NUCLEATED RED BLOOD CELLS (120 h, time 5 day): 0 /100WBC | PLATELET COUNT (120 h, time 5 day): 1442.33 x10E3/uL | ALANINE AMINOTRANSFERASE (120 h, time 5 day): 41 u/L | ALBUMIN (120 h, time 5 day): 4.17 G/DL | ALKALINE PHOSPHATASE (120 h, time 5 day): 331.33 u/L | ASPARTATE AMINOTRANSFERASE (120 h, time 5 day): 79.67 u/L | BLOOD UREA NITROGEN (120 h, time 5 day): 15.33 mg/dL | CARBON DIOXIDE (120 h, time 5 day): 27.67 mmol/L | CHLORIDE (120 h, time 5 day): 101.67 MEQ/L | CHOLESTEROL (120 h, time 5 day): 69.67 mg/dL | CREATINE PHOSPHOKINASE (120 h, time 5 day): 228 u/L | CREATININE (120 h, time 5 day): 0.16 mg/dL | GLUCOSE (120 h, time 5 day): 143 mg/dL | LACTATE DEHYDROGENASE (120 h, time 5 day): 165 u/L | LIPASE (120 h, time 5 day): 9.33 u/L | PHOSPHORUS (120 h, time 5 day): 13.13 mg/dL | POTASSIUM (120 h, time 5 day): 6.91 MEQ/L | SODIUM (120 h, time 5 day): 146.13 MEQ/L | TOTAL BILIRUBIN (120 h, time 5 day): 0.13 mg/dL | TOTAL PROTEIN (120 h, time 5 day): 5.77 G/DL | URIC ACID (120 h, time 5 day): 1.7 mg/dL
